These results are taken from patent US6699879B1, “Phenyl urea and phenyl thiourea derivatives as orexin receptor antagonists” (SmithKline Beecham p.l.c., priority 1999, dated 2004).

No end group written: not given here.

Experiment [1] has as its system orexin receptors. The experiment in a line: Rat sleep/EEG studies, central administration. The format is in vivo. The following applies: central administration at the onset of the normal sleep period; largely at the expense of paradoxical sleep and slow wave sleep 2. The source says:
Therefore antagonists of its receptor may be useful in the treatment of sleep disorders including insomnia.

In experiment [2] the test system is freely-feeding rats. The following applies: central administration, 4 hour time period; cited from earlier work.

“orexin-A: ligand for the orexin-1 receptor, an agonist of the orexin receptors; 33-residue peptide, sequence in the 1st table (QPLPDCCRQKTCSCRLYELLHGAGNHAAGILTL-NH2; not fully specified (residue 1, bridges); ends and bridges not checked; UniProt O43612 34-66, looked up)”: in experiment [1], the effect on arousal result is listed as “dose-related increase in arousal”. Further, the “increase in food intake over control rats receiving vehicle” value in experiment [2] is “approximately four-fold”.
